# How the values were obtained:
# [1] = target: T1, Alpha-1A adrenergic receptor (Homo sapiens, UniProt P35348); assay: Binding affinity to alpha 1A adrenergic receptor (unknown origin) assessed as inhibition constant
# T1 sequence (P35348 whole entry): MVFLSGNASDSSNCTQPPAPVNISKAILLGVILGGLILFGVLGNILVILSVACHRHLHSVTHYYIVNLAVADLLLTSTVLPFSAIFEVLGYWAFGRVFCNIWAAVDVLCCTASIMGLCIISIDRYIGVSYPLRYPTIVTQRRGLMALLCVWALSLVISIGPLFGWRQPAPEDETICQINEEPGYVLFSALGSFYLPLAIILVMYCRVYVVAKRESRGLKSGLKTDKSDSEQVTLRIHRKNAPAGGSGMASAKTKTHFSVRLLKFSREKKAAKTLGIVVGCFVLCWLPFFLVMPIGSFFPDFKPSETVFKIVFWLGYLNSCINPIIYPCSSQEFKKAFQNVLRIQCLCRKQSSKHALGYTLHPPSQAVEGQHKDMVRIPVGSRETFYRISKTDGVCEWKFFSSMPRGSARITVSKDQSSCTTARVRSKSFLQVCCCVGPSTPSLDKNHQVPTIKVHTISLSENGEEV
# [2] = target: T2, 5-hydroxytryptamine receptor 1A (Homo sapiens, UniProt P08908)
# T2 sequence (P08908 whole entry): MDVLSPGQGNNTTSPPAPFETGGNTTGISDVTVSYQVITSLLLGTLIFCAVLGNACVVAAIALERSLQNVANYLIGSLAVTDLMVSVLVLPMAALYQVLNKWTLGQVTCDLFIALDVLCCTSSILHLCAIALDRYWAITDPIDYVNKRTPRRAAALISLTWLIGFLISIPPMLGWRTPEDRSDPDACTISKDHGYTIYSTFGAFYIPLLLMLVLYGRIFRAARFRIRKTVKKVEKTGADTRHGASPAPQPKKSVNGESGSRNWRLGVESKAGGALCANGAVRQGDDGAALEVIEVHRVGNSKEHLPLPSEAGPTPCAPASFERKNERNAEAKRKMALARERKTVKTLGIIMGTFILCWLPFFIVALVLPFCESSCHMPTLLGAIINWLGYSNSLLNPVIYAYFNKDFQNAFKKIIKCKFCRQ
# [3] = target: 5-hydroxytryptamine receptor 2B (Homo sapiens, UniProt P41595)
# [4] = target: 5-hydroxytryptamine receptor 1B (Homo sapiens, UniProt P28222)
# [5] = target: T2, 5-hydroxytryptamine receptor 1A; remark: listed apart in the source
# [6] = target: T3, 5-hydroxytryptamine receptor 7 (Homo sapiens, UniProt P34969)
# [7] = target: 5-hydroxytryptamine receptor 5A (Homo sapiens, UniProt P47898); assay: Binding affinity to 5-HT5A receptor (unknown origin) assessed as inhibition constant
# [8] = target: 5-hydroxytryptamine receptor 1D (Homo sapiens, UniProt P28221); assay: Binding affinity to 5-HT1D (unknown origin) assessed as inhibition constant
# [9] = target: T4, 5-hydroxytryptamine receptor 2C (Homo sapiens, UniProt P28335)
# T4 sequence (P28335 whole entry): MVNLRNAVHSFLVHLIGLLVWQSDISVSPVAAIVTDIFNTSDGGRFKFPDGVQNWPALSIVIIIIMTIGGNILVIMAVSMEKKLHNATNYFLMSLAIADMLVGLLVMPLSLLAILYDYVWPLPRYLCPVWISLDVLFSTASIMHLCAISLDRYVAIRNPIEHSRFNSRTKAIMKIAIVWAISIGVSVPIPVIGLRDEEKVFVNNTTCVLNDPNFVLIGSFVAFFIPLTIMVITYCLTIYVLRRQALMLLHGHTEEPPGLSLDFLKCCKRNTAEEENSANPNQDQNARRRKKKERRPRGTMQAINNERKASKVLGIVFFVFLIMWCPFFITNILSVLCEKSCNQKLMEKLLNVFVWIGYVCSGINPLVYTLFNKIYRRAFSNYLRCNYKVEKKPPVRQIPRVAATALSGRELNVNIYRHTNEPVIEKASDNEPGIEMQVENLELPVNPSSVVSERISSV
# [10] = target: T5, 5-hydroxytryptamine receptor 1A (Rattus norvegicus, UniProt P19327)
# T5 sequence (P19327 whole entry): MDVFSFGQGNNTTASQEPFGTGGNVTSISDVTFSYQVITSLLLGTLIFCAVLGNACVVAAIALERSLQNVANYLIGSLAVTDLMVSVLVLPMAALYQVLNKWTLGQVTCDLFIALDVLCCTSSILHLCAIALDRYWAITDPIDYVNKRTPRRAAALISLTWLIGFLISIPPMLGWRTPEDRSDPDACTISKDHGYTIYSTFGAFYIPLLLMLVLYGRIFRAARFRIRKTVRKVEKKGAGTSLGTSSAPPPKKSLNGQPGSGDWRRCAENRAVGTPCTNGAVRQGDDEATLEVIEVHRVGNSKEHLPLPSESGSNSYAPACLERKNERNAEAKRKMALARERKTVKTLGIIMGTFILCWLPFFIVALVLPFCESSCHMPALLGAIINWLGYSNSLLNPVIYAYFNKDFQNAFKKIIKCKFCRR
# [11] = target: T2, 5-hydroxytryptamine receptor 1A; assay: Binding affinity to 5-HT1A receptor in human HeLa cell membrane assessed as inhibition constant by Packard top-counter analysis; assay type: cell membranes
# [12] = Binding affinity to pig 5-HT1B receptor (unknown origin) assessed as inhibition constant
# [13] = Drug uptake in pig brain cortex measured at 10 to 20 mins postinjection; assay type: ADME, organism-based, Sus scrofa; details: in vivo, time 10-20 min
# [14] = target: T6, 5-hydroxytryptamine receptor 2C (Homo sapiens) (UniProt P28335); assay: Agonist activity at 5-HT2C receptor (unknown origin); assay type: functional; details: filed as agonist
# T6 sequence (whole entry): T4 sequence (P28335 whole entry)
# [15] = target: T6, 5-hydroxytryptamine receptor 2C (Homo sapiens); assay: Binding affinity to 5-HT2C (unknown origin); details: filed as agonist
# [16] = target: 5-hydroxytryptamine receptor 2A (Homo sapiens, UniProt P28223)
# [17] = Drug uptake in pig brain cortex assessed as non-displaceable binding potential; assay type: ADME, tissue-based, Sus scrofa; details: in vivo
# [18] = Ratio of drug uptake in rat temporal cortex to cerebellum by measuring radioactivity at 20 mins postinjection; assay type: ADME, organism-based; details: in vivo
# [19] = Ratio of drug uptake in rat temporal cortex to cerebellum by measuring radioactivity at 10 mins postinjection; assay type: ADME, organism-based; details: in vivo
# [20] = target: T3, 5-hydroxytryptamine receptor 7; assay: Binding affinity to human recombinant 5-HT7 receptor expressed in CHO cells assessed as inhibition constant; assay type: cell-based
# [21] = Drug uptake in cynomolgus monkey in brain administered IV measured at 7.5 mins relative to control; assay type: ADME, tissue-based, Macaca fascicularis; details: in vivo, 0.125 h
# T3 sequence (P34969 whole entry): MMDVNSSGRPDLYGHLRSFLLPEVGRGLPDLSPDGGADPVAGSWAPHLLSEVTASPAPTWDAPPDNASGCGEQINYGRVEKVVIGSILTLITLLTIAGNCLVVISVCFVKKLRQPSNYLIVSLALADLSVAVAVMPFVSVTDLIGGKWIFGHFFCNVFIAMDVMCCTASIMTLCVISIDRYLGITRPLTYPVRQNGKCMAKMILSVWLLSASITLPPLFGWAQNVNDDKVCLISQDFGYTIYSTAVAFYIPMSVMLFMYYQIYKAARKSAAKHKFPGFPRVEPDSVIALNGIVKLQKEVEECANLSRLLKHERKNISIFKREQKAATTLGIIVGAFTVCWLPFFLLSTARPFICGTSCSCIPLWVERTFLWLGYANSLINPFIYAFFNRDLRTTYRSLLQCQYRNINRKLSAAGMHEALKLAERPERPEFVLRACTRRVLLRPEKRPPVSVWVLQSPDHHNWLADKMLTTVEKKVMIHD
# Chain of 5-hydroxytryptamine receptor 5A (P47898 whole entry): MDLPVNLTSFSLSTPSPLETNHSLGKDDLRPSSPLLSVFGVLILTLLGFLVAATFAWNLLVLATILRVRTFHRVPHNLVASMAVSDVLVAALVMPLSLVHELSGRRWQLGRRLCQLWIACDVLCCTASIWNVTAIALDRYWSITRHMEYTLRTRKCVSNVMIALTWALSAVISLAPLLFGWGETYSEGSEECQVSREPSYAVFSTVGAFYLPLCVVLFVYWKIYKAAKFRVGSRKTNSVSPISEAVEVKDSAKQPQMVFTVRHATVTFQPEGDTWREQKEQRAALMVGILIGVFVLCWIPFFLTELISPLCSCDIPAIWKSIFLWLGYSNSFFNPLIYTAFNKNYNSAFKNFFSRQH
# Chain of 5-hydroxytryptamine receptor 2A (P28223 whole entry): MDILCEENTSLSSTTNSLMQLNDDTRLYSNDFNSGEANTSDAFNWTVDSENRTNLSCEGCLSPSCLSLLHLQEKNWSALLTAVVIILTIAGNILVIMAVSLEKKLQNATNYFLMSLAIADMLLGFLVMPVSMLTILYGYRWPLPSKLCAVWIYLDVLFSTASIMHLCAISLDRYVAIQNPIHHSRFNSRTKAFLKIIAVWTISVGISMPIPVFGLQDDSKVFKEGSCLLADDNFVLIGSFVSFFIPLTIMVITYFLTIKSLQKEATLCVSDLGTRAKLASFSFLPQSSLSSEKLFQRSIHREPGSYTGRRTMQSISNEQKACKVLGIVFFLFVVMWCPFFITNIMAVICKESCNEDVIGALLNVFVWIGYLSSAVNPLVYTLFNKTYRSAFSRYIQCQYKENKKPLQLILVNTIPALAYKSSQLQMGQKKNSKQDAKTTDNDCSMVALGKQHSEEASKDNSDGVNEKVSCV
# Chain of 5-hydroxytryptamine receptor 1D (P28221 whole entry): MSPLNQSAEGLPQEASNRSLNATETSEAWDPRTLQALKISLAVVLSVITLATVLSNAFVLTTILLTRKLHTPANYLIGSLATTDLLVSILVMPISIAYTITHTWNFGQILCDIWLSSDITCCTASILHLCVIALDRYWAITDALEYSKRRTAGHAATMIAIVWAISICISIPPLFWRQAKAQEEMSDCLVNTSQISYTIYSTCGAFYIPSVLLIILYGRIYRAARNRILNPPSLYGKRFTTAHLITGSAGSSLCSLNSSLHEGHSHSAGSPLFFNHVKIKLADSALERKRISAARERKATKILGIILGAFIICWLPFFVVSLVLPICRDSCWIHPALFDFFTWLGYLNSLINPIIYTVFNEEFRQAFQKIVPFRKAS
# Chain of 5-hydroxytryptamine receptor 1B (P28222 whole entry): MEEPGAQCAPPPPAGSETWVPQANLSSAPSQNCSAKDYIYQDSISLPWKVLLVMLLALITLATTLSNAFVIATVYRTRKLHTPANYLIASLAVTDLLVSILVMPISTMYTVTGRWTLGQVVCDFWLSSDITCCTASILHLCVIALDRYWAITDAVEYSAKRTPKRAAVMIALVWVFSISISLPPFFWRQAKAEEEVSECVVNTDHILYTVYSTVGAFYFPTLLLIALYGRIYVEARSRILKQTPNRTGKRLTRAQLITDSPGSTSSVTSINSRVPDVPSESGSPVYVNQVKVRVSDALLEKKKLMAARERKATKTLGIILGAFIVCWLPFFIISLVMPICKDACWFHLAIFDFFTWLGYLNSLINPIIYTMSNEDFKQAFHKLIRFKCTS
# Chain of 5-hydroxytryptamine receptor 2B (P41595 whole entry): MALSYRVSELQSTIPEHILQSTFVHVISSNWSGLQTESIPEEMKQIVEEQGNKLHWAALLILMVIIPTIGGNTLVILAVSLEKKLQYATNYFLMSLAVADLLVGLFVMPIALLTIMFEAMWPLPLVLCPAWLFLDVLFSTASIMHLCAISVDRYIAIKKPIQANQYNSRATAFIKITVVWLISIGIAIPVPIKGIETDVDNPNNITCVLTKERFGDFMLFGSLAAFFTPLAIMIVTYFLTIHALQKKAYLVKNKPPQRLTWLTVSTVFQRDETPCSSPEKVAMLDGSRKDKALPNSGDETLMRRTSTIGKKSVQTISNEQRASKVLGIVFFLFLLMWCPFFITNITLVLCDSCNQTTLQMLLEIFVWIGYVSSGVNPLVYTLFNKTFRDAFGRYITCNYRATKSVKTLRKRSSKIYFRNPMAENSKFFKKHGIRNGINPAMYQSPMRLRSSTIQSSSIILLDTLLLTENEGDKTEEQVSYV
structure (smiles),measurement,setting,value
COc1ccccc1N1CCN(CCCN/C(=N\C#N)c2ccccn2)CC1,Ki,[1],20 nM
CCCN(CCCSC)C1CCc2cccc(O)c2C1 (racemic),Ki,[2],0.19 nM
Cc1[nH]c2ccc(NC(=O)c3ccc(F)cc3)cc2c1CCN(C)C,Ki,[3],> 260 nM
same,Ki,[4],> 260 nM
same,Ki,[5],> 260 nM
same,Ki,[6],> 260 nM
same,Ki,[7],> 260 nM
same,Ki,[8],> 260 nM
same,Ki,[9],> 260 nM
COc1ccccc1N1CCN(CCNC(=O)c2ccncc2)CC1,Ki,[1],20 nM
CCCN(CCC)C1CCc2cccc(SC)c2C1 (racemic),IC50,[10],1.2 nM
COc1ccccc1N1CCN(CCN(C(=O)N2CCCCC2)c2cccc(Br)n2)CC1,Ki,[11],0.31 nM
O=C(NCCN1CCN(C2CCCc3ccccc32)CC1)c1ccc([18F])cc1 (stereo unspecified),Ki,[2],0.5 nM
Cc1ccc(N2CCN([11CH3])CC2)c2nc(C(=O)Nc3ccc(N4CCOCC4)cc3)ccc12,Ki,[12],0.2 nM
COc1cc(CCNCc2ccccc2OC)c(O[11CH3])cc1I,SUV,[13],0.8
COc1ccccc1N1CCN(CCNC(=O)C2CCCCC2)CC1,IC50,[10],4.3 nM
c1cc2c3c(c1)[C@H]1CCC[C@H]1CN3CCNC2,K,[14],8 nM
same,K,[15],3 nM
[11CH3]Oc1ccccc1N1CCN(CCCN/C(=N\C#N)c2ccccn2)CC1,Ki,[2],0.8 nM
CN1CCN(c2cccc3c2C[C@@H](NC(=O)c2ccc(N4CCOCC4)cc2)CC3)CC1,Ki,[12],0.46 nM
COC(=O)N1CCN(c2ccc(NC(=O)C3CCc4cc(F)cc(N5CCN([11CH3])CC5)c4O3)cc2)CC1 (stereo unspecified),Ki,[12],0.5 nM
CCc1cc(OC)cc(CCNCc2cccc(F)c2)c1OC,Ki,[16],2.4 nM
COc1cc(CCNCc2ccccc2F)c(O[11CH3])cc1I,Drug uptake,[17],0.17
[11CH3]Sc1cccc(C(=O)NC[C@H]2CCCN2CCc2ccccc2)c1,Ki,[2],160 nM
COc1cc(Br)c(O[11CH3])cc1CCNCc1ccccc1OC,SUV,[13],0.8
CCC(=O)Nc1ccc2[nH]cc(C3CCN(C)CC3)c2n1,Ki,[3],> 300 nM
same,Ki,[4],> 300 nM
same,Ki,[5],> 300 nM
same,Ki,[6],> 300 nM
same,Ki,[7],> 300 nM
same,Ki,[8],> 300 nM
same,Ki,[9],> 300 nM
CCCN(CCC)[C@@H]1CCc2cccc(SC)c2C1,Ki,[2],0.6 nM
COc1ccccc1N1CCN(CCN(c2cccc(Br)n2)[11C](=O)N2CCCCC2)CC1,Ratio,[18],3
same,Ratio,[19],1.9
O=S(=O)(c1ccccc1F)N1CCC[C@@H]1CCCN1CCN(c2ccc(Cl)cc2)CC1,Ki,[20],0.22 nM
COc1c(Br)cc([18F])cc1CCNCc1cccc2c1OCO2,Ki,[16],1.7 nM
CC(C)c1cc(-c2ccc(F)c3ccccc23)nc(N)n1,Ki,[3],0.3 nM
COc1cccc2c1CCCC2CCCN1CCN(c2ccccc2)CC1 (stereo unspecified),Ki,[2],0.5 nM
COc1ccccc1N1CCN(CCN(C(=O)c2ccc(F)c(C)c2)c2ccccn2)CC1,Ki,[1],13 nM
O=S(=O)(c1ccccc1F)N1CCC[C@@H]1CCCN1CCN(c2ccccn2)CC1,Ki,[20],0.17 nM
COc1ccccc1N1CCN(CCNC(=O)C2CC3CCC2CC3)CC1 (stereo unspecified),IC50,[10],1 nM
O=S(=O)(c1ccc(F)cc1)N1CCC[C@@H]1CCCN1CCN(c2ccc(Cl)cc2)CC1,Ki,[20],0.32 nM
COc1c(Br)cc([18F])cc1CCNCc1ccccc1O,Ki,[16],7.2 nM
COc1ccccc1N1CCN(CCCCc2ccc3c(c2)oc(=O)n3C)CC1,Ki,[2],0.04 nM
CC1CCN(CCC[C@H]2CCCN2S(=O)(=O)c2ccc(F)cc2)CC1,Ki,[20],16 nM
COc1cc(C(F)(F)F)c(OC)cc1CCNCc1ccccc1O[11CH3],Drug uptake,[17],0.82
[11CH3]N1CCN(c2cccc3c2OC(C(=O)Nc2ccc(N4CCOCC4)cc2)CC3)CC1 (racemic),Ki,[12],0.4 nM
CCCN(CCCCC1C(=O)CC2(CCCC2)CC1=O)[C@H]1CCc2cccc(OC)c2C1,Ki,[2],0.9 nM
[11CH3]N1CCN(c2cccc3c2O[C@H](C(=O)Nc2ccc(N4CCOCC4)cc2)CC3)CC1,Ki,[12],0.6 nM
CN1CCN(c2cc(F)cc3c(=O)cc(C(=O)Nc4ccc(N5CCOCC5)c(F)c4)oc23)CC1,Ki,[12],0.13 nM
CC1CCN(CCC[C@H]2CCCN2S(=O)(=O)c2ccccc2F)CC1,Ki,[20],7.6 nM
CC(=O)Nc1ccc2[nH]cc(C3CCN(C)CC3)c2n1,Ki,[3],> 240 nM
same,Ki,[4],> 240 nM
same,Ki,[5],> 240 nM
same,Ki,[6],> 240 nM
same,Ki,[7],> 240 nM
same,Ki,[8],> 240 nM
same,Ki,[9],> 240 nM
CN1CCN(c2cccc3c2C[C@H](NC(=O)c2ccc(OS(C)(=O)=O)cc2)CC3)CC1,Ki,[12],0.25 nM
COc1ccccc1N1CCN(CCN(C(=O)N2CCCCC2)c2cccc(F)n2)CC1,Ki,[11],0.51 nM
COc1ccccc1N1CCN(CCNC(=O)c2ccccn2)CC1,Ki,[1],20 nM
[11CH3]N1CCN(c2cccc3c2O[C@@H](C(=O)Nc2ccc(N4CCOCC4)cc2)CC3)CC1,Ki,[12],0.3 nM
c1cc2c3c(c1)[C@H]1CCC[C@H]1N3CCNC2,K,[14],8 nM
same,K,[15],10 nM
COc1ccccc1N1CCN(CCN(c2cccc(F)n2)[11C](=O)C2CCCCC2)CC1,Drug uptake,[21],8%
O=C(C1CCCCC1)N(CCN1CCN(c2ccccc2O)CC1)c1ccccn1,Ki,[1],364 nM
same,Ki,[2],1.4 nM
COc1cc(Br)c(OC)c(CCNCc2cccc(F)c2)c1,Ki,[16],2.7 nM
O=C(NCCN1CCN(c2cccc(C(F)(F)F)n2)CC1)c1ccc(F)cc1,Ki,[2],0.5 nM
COc1cc(CCN)c(O[11CH3])cc1I,Drug uptake,[17],0.17
